{
  "source": "patent US7166296B2",
  "about": "“Pharmaceutical formulations and ligands for use therein; mimetics for UEA-1” (Sarlan, Ltd., priority 2001, dated 2007)",
  "key": {"[1]": {"tested_on": "UEA-1 binding sites on Caco-2 cell membrane preparations", "assay": "Single tier competition assay: inhibition of biotinylated UEA-1 binding, compound and biotinylated UEA-1 incubated together", "design": "species or system human", "settings": "for IC 50 (ug/ml) 1st tier / IC50: Table 8, galloyl constructs; for IC50: read-out: IC 50 (uM) 1st tier (converted); for Av % Inhibition / Avg % Inhibtion: Single Tier Assay; for Av % Inhibition: library MSI 22; for Single Tier Assay IC50 / pIC50: library MSI 27; for pIC50: read-out: Single Tier Assay IC50; for Avg % Inhibtion: library MSI 26", "experimental": "(§1) The epithelial cell binding ability of compounds and mixtures obtained from synthetic combinatorial libraries was determined by competition assays. These assays were set up to measure the inhibition of binding of biotinylated UEA-1 to membrane preparations of the epithelial cell line Caco-2 (colon carcinoma cells-2), by compounds and mixtures of the combinatorial libraries. This cell line is a conventional model for epithelial cells.\n(§2) Two competition inhibition assays were used in this case, namely single tier and two tier assays. These assays differed from each other in that in the single tier assay, the mixtures/compounds and the biotinylated UEA-1 were incubated together with the Caco-2 cell membrane preparations, while in case of the two-tier assay, the mixture/compounds were allowed to incubate alone with the cell membranes in the absence of biotinylated UEA-1, which was added in the next step. Addition of the extra step in the two-tier assay was to ensure that the compounds inhibiting the binding of biotinylated UEA-1 to the Caco-2 cell membranes were doing so by themselves binding to surface receptors on the Caco-2 cells and not to the biotinylated UEA-1. Each assay will be described in detail.\n(§3) • 1. Confluent Caco-2 cell monolayers (grown in 75 cm^2 flasks for up to 1 week at 37° C. and 5% CO2) were washed twice in Dulbecco's PBS (DPBS). • 2. Cell monolayers were treated with 10 mM EDTA-DPBS for 5–10 min at 37° C. and cells were harvested by centrifugation at 1000 rpm for 5 min. • 3. Cells were washed 3 times in DPBS. • 4. […] The cells were homogenised for 30 sec. • 6. The homogenates were centrifuged in hard walled tubes at 40,000 rpm for 45 min at 4° C. • 7. […] The supernatant was removed and stored on ice. The procedure was repeated adding the second supernatant to the first. • 8. The protein concentration was determined using e.g. a Bio-Rad protein assay. • 9. All fractions were stored at −80° C. prior to use. Single Tier Assays: • 1. 96-well microtiter plates were coated with membrane preparations of Caco-2 cells either by allowing them to incubate on the plates for 2½ hours at room temperature or by incubating them overnight at 4° C. 100 μl of 10 μg/ml (in 0.05 M carbonate buffer, pH 9.6) of membrane preparation was added to each well. • 2. The plates were flicked out, patted dry and blocked with bovine serum albumin (BSA)/DPBS (200 μl/well) for 1 to 4 hours at room temperature after which they were washed three times in water. • 3. […] Control wells were also set up in which the Caco-2 cell membrane preparations were incubated with unconjugated UEA-1. […] Following overnight incubation the plates were washed thoroughly (3–6 times). The plates were flicked out, patted dry and biotinylated UEA-1 was detected with commercial Streptavidin conjugated to horseradish peroxidase (HRP) (CalBiochem). […] The plates were left to incubate for an hour at room temperature. • 6. The plates were then washed 3–6 times and the biotin-streptavidin binding was detected by adding an HRP substrate OPD (orthophenyl diamine) to each well. 100 μl/well of this substrate at a final concentration of 1.6 mg/ml was added to each well. Before adding to the wells, this substrate was activated by addition of 50 μl of 3% H2O2 per plate and the reaction was allowed to develop in the dark. • 7. The reaction was stopped by adding 50 μl of 4 N H2SO4 to each well after approximately 5–10 minutes or when sufficient colour had developed. The OD490 (absorbance at 490 nm) of each well was measured using a conventional 96 well plate reading spectrophotometer. Two Tier Assays: • 1. 96 well plates were coated with Caco-2 cell membrane preparations in the same manner as described in the single tier assay. • 2. […] 100 μl at these final concentrations were added to each well. • 4. The plates were then left to incubate overnight, a step that would allow the mixtures and compounds to interact with the Caco-2 cell membranes without the presence of the competitor (biotinylated UEA-1) itself. • 5. […]"}, "[2]": {"tested_on": "UEA-1 binding sites on Caco-2 cell membrane preparations", "assay": "Two tier competition assay: compound incubated alone with membranes, biotinylated UEA-1 added in next step", "design": "species or system human", "settings": "for IC 50 (ug/ml) 2nd tier / IC50: Table 8, galloyl constructs; for IC50: read-out: IC 50 (uM) 2nd tier; for Av % Inhibition / Avg % Inhibition: Two Tier Assay; for Av % Inhibition: library MSI 22; for Two Tier Assay IC50 / pIC50: library MSI 27; for pIC50: read-out: Two Tier Assay IC50; for Avg % Inhibition: library MSI 26", "experimental": "as §1, §2, §3"}},
  "note": "pIC50: −log10 of the molar value.",
  "data": [
    {"molecule": "NC(=O)C(CCNC(=O)c1cc(O)c(O)c(O)c1)NC(=O)C(CCNC(=O)c1cc(O)c(O)c(O)c1)NC(=O)C(CCNC(=O)c1cc(O)c(O)c(O)c1)NC(=O)c1cc(O)c(O)c(O)c1", "note": "(stereo not shown) [MSI 34 #18]", "values": [
      {"measurement": "IC 50 (ug/ml) 1st tier", "setting": "[1]", "result": 3, "unit": "µg/mL"},
      {"measurement": "IC50", "setting": "[1]", "result": 3, "unit": "µM"},
      {"measurement": "IC 50 (ug/ml) 2nd tier", "setting": "[2]", "result": 0.9, "unit": "µg/mL"},
      {"measurement": "IC50", "setting": "[2]", "result": 1, "unit": "µM"}
    ]},
    {"molecule": "CNC[C@H](Cc1ccc2ccccc2c1)N(C)C[C@@H](Cc1ccc2ccccc2c1)NC(=O)c1cc(O)c(O)c(O)c1", "note": "[L-NapAla, D-Napala, Gallic Acid]", "values": [
      {"measurement": "Av % Inhibition", "setting": "[1]; 62.5 μg/ml", "result": "−3", "unit": "%"},
      {"measurement": "Av % Inhibition", "setting": "[1]; 250 μg/ml", "result": 7, "unit": "%"},
      {"measurement": "Av % Inhibition", "setting": "[2]; 62.5 μg/ml", "result": 22.0, "unit": "%"},
      {"measurement": "Av % Inhibition", "setting": "[2]; 250 μg/ml", "result": 44.6, "unit": "%"}
    ]},
    {"molecule": "CC(=O)NC(CCCCNC(=O)c1cc(O)cc(O)c1)C(=O)NC(CCCCNC(=O)c1cc(O)cc(O)c1)C(=O)NC(CCCCNC(=O)c1cc(O)cc(O)c1)C(N)=O", "note": "(stereo not shown) [Cpd 56]", "values": [
      {"measurement": "Single Tier Assay IC50", "setting": "[1]", "result": 125.00, "unit": "µg/mL"},
      {"measurement": "pIC50", "setting": "[1]", "result": 3.83},
      {"measurement": "Two Tier Assay IC50", "setting": "[2]", "result": 125.00, "unit": "µg/mL"},
      {"measurement": "pIC50", "setting": "[2]", "result": 3.83}
    ]},
    {"molecule": "Oc1cc(O)c2c(c1)O[C@H](c1cc(O)c(O)c(O)c1)[C@H](O)C2", "note": "[Epigallocatechin, reference compound]", "values": [
      {"measurement": "Avg % Inhibtion", "setting": "[1]; 62.5 μg/ml", "result": 10.1, "unit": "%"},
      {"measurement": "Avg % Inhibtion", "setting": "[1]; 250 μg/ml", "result": 0, "unit": "%"},
      {"measurement": "Avg % Inhibition", "setting": "[2]; 62.5 μg/ml", "result": "−12", "unit": "%"},
      {"measurement": "Avg % Inhibition", "setting": "[2]; 250 μg/ml", "result": "−10", "unit": "%"}
    ]},
    {"molecule": "NC(=O)c1cc(O)cc(O)c1", "note": "[3,5-dihydroxybenzamide, reference compound]", "values": [
      {"measurement": "Avg % Inhibtion", "setting": "[1]; 62.5 μg/ml", "result": "−1", "unit": "%"},
      {"measurement": "Avg % Inhibtion", "setting": "[1]; 250 μg/ml", "result": 2.4, "unit": "%"},
      {"measurement": "Avg % Inhibition", "setting": "[2]; 62.5 μg/ml", "result": "−7", "unit": "%"},
      {"measurement": "Avg % Inhibition", "setting": "[2]; 250 μg/ml", "result": "−2", "unit": "%"}
    ]},
    {"molecule": "COc1cc(C(=O)NCCCCC(NC(=O)C(CCCCNC(=O)c2cc(OC)c(OC)c(OC)c2)NC(C)=O)C(N)=O)cc(OC)c1OC", "note": "(stereo not shown) [Cpd 36]", "values": [
      {"measurement": "pIC50", "setting": "[1]", "result": 3.45},
      {"measurement": "Two Tier Assay IC50", "setting": "[2]", "result": 125.00, "unit": "µg/mL"},
      {"measurement": "pIC50", "setting": "[2]", "result": 3.75}
    ]},
    {"molecule": "CCOc1cc(C(=O)NCCCC[C@@H](NC(=O)[C@@H](CCCCNC(=O)c2cc(OCC)c(OCC)c(OCC)c2)NC(=O)[C@@H](CCCCNC(=O)c2cc(OCC)c(OCC)c(OCC)c2)NC(=O)c2cc(OCC)c(OCC)c(OCC)c2)C(N)=O)cc(OCC)c1OCC", "note": "[Cpd 43]", "values": [
      {"measurement": "pIC50", "setting": "[1]", "result": 3.73},
      {"measurement": "pIC50", "setting": "[2]", "result": 3.73}
    ]},
    {"molecule": "COc1cc(C(=O)NCCCCC(NC(=O)c2cc(OC)c(O)c(OC)c2)C(=O)NCCCCC(NC(=O)C(CCCCNC(=O)c2cc(OC)c(O)c(OC)c2)NC(=O)c2cc(OC)c(O)c(OC)c2)C(N)=O)cc(OC)c1O", "note": "(stereo not shown) [Cpd 17]", "values": [
      {"measurement": "Single Tier Assay IC50", "setting": "[1]", "result": 145.80, "unit": "µg/mL"},
      {"measurement": "pIC50", "setting": "[1]", "result": 3.89},
      {"measurement": "Two Tier Assay IC50", "setting": "[2]", "result": 95.95, "unit": "µg/mL"},
      {"measurement": "pIC50", "setting": "[2]", "result": 4.07}
    ]},
    {"molecule": "COc1cc(C(=O)NCCCCC(NC(=O)C(CCCCNC(=O)c2cc(OC)c(OC)c(OC)c2)NC(=O)c2cc(OC)c(OC)c(OC)c2)C(N)=O)cc(OC)c1OC", "note": "(stereo not shown) [Cpd 28]", "values": [
      {"measurement": "pIC50", "setting": "[1]", "result": 3.53},
      {"measurement": "pIC50", "setting": "[2]", "result": 3.53}
    ]},
    {"molecule": "NC(=O)C(CCCNC(=O)C(CCCNC(=O)c1cc(O)c(O)c(O)c1)NC(=O)c1cc(O)c(O)c(O)c1)NC(=O)C(CCCNC(=O)c1cc(O)c(O)c(O)c1)NC(=O)c1cc(O)c(O)c(O)c1", "note": "(stereo not shown) [MSI 34 #7]", "values": [
      {"measurement": "IC 50 (ug/ml) 1st tier", "setting": "[1]", "result": 0.9, "unit": "µg/mL"},
      {"measurement": "IC50", "setting": "[1]", "result": 0.9, "unit": "µM"},
      {"measurement": "IC 50 (ug/ml) 2nd tier", "setting": "[2]", "result": 1, "unit": "µg/mL"},
      {"measurement": "IC50", "setting": "[2]", "result": 1, "unit": "µM"}
    ]},
    {"molecule": "CCOc1cc(C(=O)NCCCCC(NC(=O)c2cc(OCC)c(OCC)c(OCC)c2)C(N)=O)cc(OCC)c1OCC", "note": "(stereo not shown) [Cpd 3]", "values": [
      {"measurement": "pIC50", "setting": "[1]", "result": 3.39},
      {"measurement": "pIC50", "setting": "[2]", "result": 3.39}
    ]},
    {"molecule": "COc1cc(C(=O)NCCCCC(NC(=O)C(CCCCNC(=O)c2cc(OC)c(O)c(OC)c2)NC(C)=O)C(N)=O)cc(OC)c1O", "note": "(stereo not shown) [Cpd 33]", "values": [
      {"measurement": "Single Tier Assay IC50", "setting": "[1]", "result": 97.85, "unit": "µg/mL"},
      {"measurement": "pIC50", "setting": "[1]", "result": 3.84},
      {"measurement": "Two Tier Assay IC50", "setting": "[2]", "result": 72.17, "unit": "µg/mL"},
      {"measurement": "pIC50", "setting": "[2]", "result": 3.97}
    ]},
    {"molecule": "CCOc1cc(C(=O)NCCCCC(NC(=O)C(CCCCNC(=O)c2cc(OCC)c(OCC)c(OCC)c2)NC(=O)c2cc(OCC)c(OCC)c(OCC)c2)C(N)=O)cc(OCC)c1OCC", "note": "(stereo not shown) [Cpd 27]", "values": [
      {"measurement": "pIC50", "setting": "[1]", "result": 3.59},
      {"measurement": "pIC50", "setting": "[2]", "result": 3.59}
    ]}
  ]
}
